Consider one compound from PMC6892255, “Identification of a potent small-molecule inhibitor of bacterial DNA repair that potentiates quinolone antibiotic activity in methicillin-resistant Staphylococcus aureus^” (Bioorganic & Medicinal Chemistry, 2019).

Entries after “also recorded” stand apart in the source; their conditions may differ.

One assay has as its target T1, E. coli topoisomerase IV (Escherichia coli, UniProt P0AFI2+P20083).
T1 construct: purchased Inspiralis
Put plainly: Topoisomerase IV supercoiling relaxation assay (pQE80L). Type of assay: biochemical. The note with it: at 12.5 µM (compounds). As for the experimental part: 2.1. Biological and biochemical methods […]
(§1) E. coli DNA gyrase supercoiling assay (Inspiralis) was performed according to the manufacturer’s instructions, ensuring a constant concentration of 1% (v/v) DMSO. Samples were separated on a 1% (w/v) agarose gel prepared with Tris/Borate/EDTA (TBE) buffer (1 M Tris-borate, 20 mM EDTA, pH 8.0). Electrophoresis was performed at 100 V until the bromophenol blue dye had run >6 cm to ensure resolution of relaxed and supercoiled DNA.
(§2) The gel was stained with SYBR Safe DNA gel stain (Invitrogen, 1:10,000 dilution in TBE) for 30 min, and visualized on a Syngene Gel Doc system. Band intensity was quantified using ImageJ software and the fraction of supercoiled plasmid was determined as the ratio of the density of the supercoiled band to the total density. Values were background corrected against the no-gyrase control and normalized to DMSO control for dose-response analysis.
E. coli topoisomerase IV supercoiling relaxation assay (Inspiralis) was performed according to the manufacturer’s instructions, ensuring a constant concentration of 1% (v/v) DMSO.
Supercoiled pQE80L was prepared via plasmid purification and used as the substrate for the reaction. Reactions were analyzed as described for DNA gyrase assays. […]

A further assay addresses T2, E. coli DNA gyrase (Escherichia coli, UniProt P0AES4+P0AES6).
T2 construct: purchased Inspiralis
Put plainly: DNA gyrase supercoiling assay (pBR322). Type of assay: biochemical. The note with it: at 12.5 μM (compounds); gel and densitometry. As for the experimental part:
DNA gyrase produces supercoiled DNA from relaxed and open-coiled DNA, which can be separated via agarose gel electrophoresis. […]
as §1, §2

Assay [1] has as its system SOS response in JE2 cells. Put plainly: SOS reporter assay (GFP under control of the recA promoter). The class given is cell-based, Staphylococcus aureus. From the text:
A SOS reporter system was generated by transformation of JE2 cells with a plasmid containing GFP under control of the recA promoter. Activation of the SOS response in these cells results in expression of GFP which can be monitored by fluorescence intensity. […] IMP-1700 (10) was coupled with N-Boc-ethylenediamine to afford amide 19, followed by removal of the Boc group in 4 M HCl/dioxane and purification using strong cation exchange resin. The resulting free amine 20 was coupled to N-hydroxysuccinimide (NHS)-activated Sepharose resin at 4 °C overnight (Figure 2C), and the remaining NHS sites quenched in Tris buffer. SoluBL21 competent E. coli were transformed with pET28b^+ containing StrepII-tagged AddA and hexahistidine-tagged AddB, and expression induced overnight at 16 °C. […] Beads were washed three times with lysis buffer and bound protein eluted with SDS-PAGE sample buffer, followed by PAGE separation. […]
JE2 transformed with SOS-inducible pCN34 PrecA-gfp reporter plasmid expressing GFP under the control of the recA promoter were grown to late stationary phase at 37 °C in MHB containing kanamycin (90 μg/mL). Stationary phase JE2 culture (1 mL) was centrifuged (17,000 × g, 2 min), the supernatant removed and cells resuspended in assay media (12.5 µM […]
concentration was maintained >12.5 µM and DMSO concentration maintained at 1.5% (v/v).
JE2 culture (20 uL) was added to inhibitor solutions (180 µL) to a final cell density of 4 x 10^7 CFU/mL and samples incubated in a M200-PRO microplate reader (Tecan) at 37 °C with 700 rpm agitation for 17 h. GFP fluorescence intensity and OD600 were measured at 15 min intervals. Measurements were background corrected against no-inocula control and normalized to no-test inhibitor control at mid-exponential growth phase (4.5 h) for dose-response analysis. […]

T2 sequence (P0AES4 whole entry, one chain of several): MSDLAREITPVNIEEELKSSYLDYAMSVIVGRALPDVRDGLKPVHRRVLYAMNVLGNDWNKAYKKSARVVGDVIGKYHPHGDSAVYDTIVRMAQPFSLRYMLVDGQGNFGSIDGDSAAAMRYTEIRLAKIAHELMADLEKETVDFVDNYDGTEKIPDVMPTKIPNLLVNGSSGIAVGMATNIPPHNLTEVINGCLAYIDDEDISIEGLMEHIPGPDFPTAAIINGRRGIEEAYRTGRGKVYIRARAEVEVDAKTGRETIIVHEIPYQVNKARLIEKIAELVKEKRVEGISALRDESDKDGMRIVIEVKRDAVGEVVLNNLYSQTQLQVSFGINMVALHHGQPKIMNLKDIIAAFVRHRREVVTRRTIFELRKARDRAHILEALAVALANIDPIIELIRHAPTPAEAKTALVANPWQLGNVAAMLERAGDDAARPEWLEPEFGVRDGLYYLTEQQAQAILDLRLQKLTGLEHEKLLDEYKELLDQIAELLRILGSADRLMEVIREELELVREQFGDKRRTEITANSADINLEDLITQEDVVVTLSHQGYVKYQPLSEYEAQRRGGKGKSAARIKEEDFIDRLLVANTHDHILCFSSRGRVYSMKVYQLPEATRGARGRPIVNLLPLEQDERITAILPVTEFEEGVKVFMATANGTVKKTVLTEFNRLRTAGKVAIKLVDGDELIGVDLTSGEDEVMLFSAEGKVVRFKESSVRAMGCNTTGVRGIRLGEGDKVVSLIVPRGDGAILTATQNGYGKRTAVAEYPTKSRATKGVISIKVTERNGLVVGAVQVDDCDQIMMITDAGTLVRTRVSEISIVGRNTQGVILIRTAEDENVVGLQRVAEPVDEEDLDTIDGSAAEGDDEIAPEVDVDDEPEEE
T1 sequence (P0AFI2 whole entry): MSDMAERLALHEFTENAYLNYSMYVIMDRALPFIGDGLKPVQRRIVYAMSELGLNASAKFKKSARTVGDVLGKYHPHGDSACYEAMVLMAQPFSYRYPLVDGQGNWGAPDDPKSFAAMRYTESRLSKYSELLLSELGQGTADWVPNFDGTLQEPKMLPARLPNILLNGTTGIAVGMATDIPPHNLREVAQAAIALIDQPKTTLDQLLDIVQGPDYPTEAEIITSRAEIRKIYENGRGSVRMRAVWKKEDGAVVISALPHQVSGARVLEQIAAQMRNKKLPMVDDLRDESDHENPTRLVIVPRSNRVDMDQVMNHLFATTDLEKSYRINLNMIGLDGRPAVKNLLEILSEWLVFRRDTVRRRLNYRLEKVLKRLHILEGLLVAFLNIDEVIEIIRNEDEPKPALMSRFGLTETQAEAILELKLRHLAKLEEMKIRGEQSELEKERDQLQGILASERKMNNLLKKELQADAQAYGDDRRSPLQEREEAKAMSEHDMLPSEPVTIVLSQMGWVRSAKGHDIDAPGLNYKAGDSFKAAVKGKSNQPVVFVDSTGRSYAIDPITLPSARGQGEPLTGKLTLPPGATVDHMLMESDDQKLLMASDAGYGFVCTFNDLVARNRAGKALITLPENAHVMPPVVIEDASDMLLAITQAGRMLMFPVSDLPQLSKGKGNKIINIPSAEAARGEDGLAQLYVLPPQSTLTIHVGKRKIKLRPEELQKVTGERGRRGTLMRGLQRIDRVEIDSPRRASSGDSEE
T1 sequence (P20083 whole entry): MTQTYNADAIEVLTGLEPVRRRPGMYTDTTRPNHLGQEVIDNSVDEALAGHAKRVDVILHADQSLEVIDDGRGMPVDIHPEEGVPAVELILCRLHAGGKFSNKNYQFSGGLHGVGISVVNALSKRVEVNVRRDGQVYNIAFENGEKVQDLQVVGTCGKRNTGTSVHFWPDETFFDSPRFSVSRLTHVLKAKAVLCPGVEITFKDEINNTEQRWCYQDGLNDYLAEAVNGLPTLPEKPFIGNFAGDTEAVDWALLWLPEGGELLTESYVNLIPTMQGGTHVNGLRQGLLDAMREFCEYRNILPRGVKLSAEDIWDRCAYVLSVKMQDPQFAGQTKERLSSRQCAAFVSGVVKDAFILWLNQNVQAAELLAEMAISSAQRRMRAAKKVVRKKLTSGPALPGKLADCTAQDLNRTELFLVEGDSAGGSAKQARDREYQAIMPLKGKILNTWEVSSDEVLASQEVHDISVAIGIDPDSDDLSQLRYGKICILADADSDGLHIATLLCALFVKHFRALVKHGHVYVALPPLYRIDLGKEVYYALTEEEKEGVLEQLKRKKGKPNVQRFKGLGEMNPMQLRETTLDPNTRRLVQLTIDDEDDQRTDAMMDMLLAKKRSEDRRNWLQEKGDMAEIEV

`O=C(O)c1cn(C2CC2)c2cc(N3CCNCC3)c(F)cc2c1=O` [CFX, ciprofloxacin, reference compound]: the “Inhibition of topoisomerase IV” value at E. coli topoisomerase IV is “inhibited”. For the same compound, on E. coli DNA gyrase, the “Activity against DNA gyrase” value was “inhibited”. Besides, in assay [1] (JE2 recA-GFP reporter with CFX (10 µM)), the “Effect on cell number (OD600) in SOS reporter assay” value is reported as “decrease in cell number at low micromolar concentrations”. Besides, the “SOS response (normalized GFP fluorescence/cell)” value in assay [1] (JE2 recA-GFP reporter, SOS activated with CFX (10 µM), titration of compound) is “increase in normalized GFP fluorescence/cell; also recorded: SOS activation increased”.
